{"source": "patent US20120121723A1", "about": "“Antimicrobial Compositions” (priority 2005, published 2012)", "key": {"[1]": {"system": "E. coli", "test": "microbe, parasite or virus in culture", "format": "cell-based, Escherichia coli", "conditions": "for MIC: Escherichia coli", "source_text": "(§1) MIC testing and synergistic effects studies. The microorganisms were clinically obtained isolates. Staphylococcus aureus is a clinically significant member of the gram-positive group of bacterial pathogens. It gives rise to serious infections, and can produce bacteremia, endocarditis, and meningitis. Methicillin-resistant strains of Staphylococcus aureus (MRSA) were chosen for evaluation because they are a significant medical problem, particularly in view of the fact that methicillin is a drug of choice for treatment of S. aureus infection in the common penicillin-resistant strains. Escherichia coli was also chosen for evaluation. E. coli is a gram-negative pathogenic enterobacteriaceae, and is commonly used as a model organism for bacteria in general. The E. coli strain O157:H7, one of hundreds of strains of the bacterium E. coli, causes illness in humans.\n(§2) All individual components are present in the combination at a starting point of 10,000 μg/mL, or 1% unless otherwise noted in the parenthesis in the attached tables. Combinations are serially diluted to obtain the MIC. […]\n(§3) Abbreviations in Tables 2 and 3 are as follows. MIC is the Minimum Inhibitory Concentration. MRSA is Methicillin-resistant Staphylococcus Aureus. E. coli is Escherichia coli. […] Pluronic® F127 is Pluronic® F127 microemulsion.\n(§4) The Minimum Inhibitory Concentrations (MIC) were determined using tube dilution sensitivities. […] The cultures were incubated overnight at 37° C. and MICs were recorded. The MIC was determined as the lowest concentration of a combination which prevented visible microorganism growth (e.g., turbidity). A culture growth control without compound and several culture sensitive reference agents were used as positive controls. The assays were performed in triplicate.\n(§5) Dilutions of the compositions were added to bacterial growth media (tryptic soy broth) to result in a set of tubes with a concentration range of 0.001 mg/L-1000 mg/L of the combination.\n(§6) QB is the ppm (MIC) of active substance B alone which produces an endpoint. QC is the ppm (MIC) of active substance C alone which produces an endpoint. Qa is the ppm (MIC) of active substance A, in the combination, which produces an endpoint. Qb is the ppm (MIC) of active substance B, in the combination, which produces an endpoint. Qc is the ppm (MIC) of active substance C, in the combination, which produces an endpoint. And so on for Qn components.\n(§7) If the SI of Qa/QA+Qb/QB+Qc/QC is less than one, synergy is indicated. A value greater than one indicates antagonism. A value equal to one indicates additivity."}, "[2]": {"system": "MRSA", "test": "MIC by tube dilution and Kull synergy index against MRSA", "format": "cell-based, Staphylococcus aureus", "conditions": "for MIC: Staphylococcus aureus", "source_text": "as §1, §2, §3, §4, §5, §6, §7"}, "[3]": {"system": "resistant E. coli", "test": "Additional synergy testing: combination plus 0.5X MIC of an antibiotic", "format": "cell-based, Escherichia coli"}, "[4]": {"conditions": "Table 2, MIC of Component 3 alone against MRSA"}, "[5]": {"conditions": "Table 3, MIC of Component 1 alone against E. coli, read-out: 1-MIC-"}, "[6]": {"conditions": "Table 3, MIC of Component 2 alone against E. coli, read-out: 2-MIC-"}, "[7]": {"conditions": "Table 2, MIC of Component 1 alone against MRSA, read-out: 1-MIC-"}, "[8]": {"conditions": "Table 2, MIC of Component 2 alone against MRSA"}, "[9]": {"conditions": "Table 2, MIC of Component 2 alone against MRSA, read-out: 2-MIC-"}}, "note": "Read-outs that look alike come from different tables or passages of the source.", "data": [{"compound": "CC(O)(P(=O)(O)O)P(=O)(O)O", "note": "[HEDP, 1-hydroxyethylidene-1,1-diphosphonic acid]", "values": [{"measurement": "3-MIC-", "setting": "[1]; Table 3, MIC of Component 3 alone against E. coli", "result": 1001, "unit": "ppm"}, {"measurement": "3-MIC-", "setting": "[2]; [4]", "result": 1001, "unit": "ppm"}, {"measurement": "3-MIC-MRSA", "setting": "[2]; Table 5, Component 3 alone", "result": 1001, "unit": "ppm"}]}, {"compound": "C[C@H]1c2cccc(O)c2C(O)=C2C(=O)[C@]3(O)C(O)=C(C(N)=O)C(=O)[C@@H](N(C)C)[C@@H]3[C@@H](O)[C@@H]21", "note": "[doxy, doxycycline]", "values": [{"measurement": "MIC Ab alone (B) QB", "setting": "[3]", "result": 50, "unit": "µg/mL"}]}, {"compound": "O=C(O)c1ccccc1O", "note": "[Salicylic acid, salicylic acid]", "values": [{"measurement": "MIC", "setting": "[1]; Table 3, MIC of Component 3 alone against E. coli, read-out: 3-MIC-", "result": 1000, "unit": "µg/mL"}, {"measurement": "MIC", "setting": "[2]; MRSA, Table 5, Component 3 alone, read-out: 3-MIC-MRSA", "result": 1000, "unit": "µg/mL"}, {"measurement": "MIC", "setting": "[2]; Table 2, MIC of Component 3 alone against MRSA, read-out: 3-MIC-", "result": 1000, "unit": "µg/mL"}]}, {"compound": "O=C(O)CN(CCN(CC(=O)O)CC(=O)O)CC(=O)O.[K]", "note": "[Sample K2EDTA, potassium ethylenediaminetetraacetic acid]", "values": [{"measurement": "MIC", "setting": "[1]; read-out: 3-MIC-", "result": 1000, "unit": "µg/mL"}, {"measurement": "MIC", "setting": "[2]; MRSA, read-out: 3-MIC-", "result": 500, "unit": "µg/mL"}, {"measurement": "MIC", "setting": "[2]; MRSA, read-out: 3-MIC-MRSA", "result": 500, "unit": "µg/mL"}]}, {"compound": "Oc1cccc2cccnc12", "note": "[8-hydroxyquinoline]", "values": [{"measurement": "MIC", "setting": "[1]; read-out: 3-MIC-", "result": 50, "unit": "µg/mL"}, {"measurement": "MIC", "setting": "[2]; MRSA, read-out: 3-MIC-", "result": 1.56, "unit": "µg/mL"}, {"measurement": "MIC", "setting": "[2]; MRSA, read-out: 3-MIC-MRSA", "result": 1.56, "unit": "µg/mL"}]}, {"compound": "C=CCN=C=S", "note": "[Allyl isothiocyanate, allyl isothiocyanate]", "values": [{"measurement": "MIC", "setting": "[1]; [5]", "result": 1000, "unit": "µg/mL"}, {"measurement": "MIC", "setting": "[1]; [6]", "result": 1000, "unit": "µg/mL"}, {"measurement": "MIC", "setting": "[2]; MRSA, read-out: 1-MIC-", "result": 1000, "unit": "µg/mL"}, {"measurement": "MIC", "setting": "[2]; MRSA, read-out: 2-MIC-", "result": 1000, "unit": "µg/mL"}, {"measurement": "MIC", "setting": "[2]; MRSA, read-out: 2-MIC-MRSA", "result": 1000, "unit": "µg/mL"}]}, {"compound": "OCC1CCCO1", "note": "(stereo not shown) [THFA, tetrahydrofurfuryl alcohol]", "values": [{"measurement": "MIC", "setting": "[2]; MRSA, read-out: Other-MIC-", "result": 500, "unit": "µg/mL"}]}, {"compound": "C=CC(C)(O)CCC=C(C)CCC=C(C)C", "note": "(stereo not shown) [Nerolidol, nerolidol]", "values": [{"measurement": "MIC", "setting": "[1]; [5]", "result": 1000, "unit": "µg/mL"}, {"measurement": "MIC", "setting": "[2]; MRSA, Table 5, Comp. 1 alone, read-out: 1-MIC-MRSA", "result": 500, "unit": "µg/mL"}, {"measurement": "MIC", "setting": "[2]; [7]", "result": 500, "unit": "µg/mL"}]}, {"compound": "O=C(/C=C/C=C/c1ccc2c(c1)OCO2)N1CCCCC1", "note": "[Piperine, piperine]", "values": [{"measurement": "MIC", "setting": "[1]; [5]", "result": 1000, "unit": "µg/mL"}, {"measurement": "MIC", "setting": "[1]; [6]", "result": 1000, "unit": "µg/mL"}, {"measurement": "MIC", "setting": "[2]; MRSA, read-out: 1-MIC-", "result": 1000, "unit": "µg/mL"}, {"measurement": "MIC", "setting": "[2]; MRSA, read-out: 2-MIC-", "result": 1000, "unit": "µg/mL"}, {"measurement": "MIC", "setting": "[2]; MRSA, read-out: 2-MIC-MRSA", "result": 1000, "unit": "µg/mL"}]}, {"compound": "C=C(C)[C@H]1CC=C(C)CC1", "note": "[Limonene, limonene]", "values": [{"measurement": "1-MIC-", "setting": "[1]; Table 3, MIC of Component 1 alone against E. coli", "result": 1000, "unit": "ppm"}, {"measurement": "2-MIC-", "setting": "[1]; Table 3, MIC of Component 2 alone against E. coli", "result": 1001, "unit": "ppm"}, {"measurement": "1-MIC-", "setting": "[2]; Table 2, MIC of Component 1 alone against MRSA", "result": 1001, "unit": "ppm"}, {"measurement": "2-MIC-", "setting": "[2]; [8]", "result": 1001, "unit": "ppm"}, {"measurement": "1-MIC-MRSA", "setting": "[2]; Table 5, Comp. 1 alone", "result": 1001, "unit": "ppm"}]}, {"compound": "gentamicin", "values": [{"measurement": "MIC Ab alone (B) QB", "setting": "[3]", "result": 100, "unit": "µg/mL"}]}, {"compound": "CN(C)[C@@H]1C(=O)C(C(N)=O)=C(O)[C@@]2(O)C(=O)C3=C(O)c4c(O)cccc4[C@@](C)(O)[C@H]3C[C@@H]12", "note": "[tetra, tetracycline]", "values": [{"measurement": "MIC Ab alone (B) QB", "setting": "[3]", "result": 400, "unit": "µg/mL"}]}, {"compound": "2-hydroxypropyl-α-cyclodextrin", "values": [{"measurement": "3-MIC-", "setting": "[2]; [4]", "result": 1001, "unit": "ppm"}, {"measurement": "3-MIC-MRSA", "setting": "[2]; Table 5, Component 3 alone", "result": 1001, "unit": "ppm"}]}, {"compound": "CN(C)c1ccc2nc3ccc(=[N+](C)C)cc-3sc2c1", "note": "[Methylene blue, methylene blue]", "values": [{"measurement": "MIC", "setting": "[1]; [5]", "result": 1000, "unit": "µg/mL"}, {"measurement": "MIC", "setting": "[1]; [6]", "result": 1000, "unit": "µg/mL"}, {"measurement": "MIC", "setting": "[2]; [9]", "result": 25, "unit": "µg/mL"}]}, {"compound": "CCCCCCCCCCCCN(CCCN)CCCN", "note": "[N,N-bis(3-aminopropyl)-dodecylamine, N,N-bis-(3-aminopropyl)dodecylamine]", "values": [{"measurement": "MIC", "setting": "[1]; [5]", "result": 25, "unit": "µg/mL"}, {"measurement": "MIC", "setting": "[1]; [6]", "result": 25, "unit": "µg/mL"}, {"measurement": "MIC", "setting": "[2]; [7]", "result": 12.5, "unit": "µg/mL"}, {"measurement": "MIC", "setting": "[2]; [9]", "result": 12.5, "unit": "µg/mL"}]}, {"compound": "CCCCCCCCO[C@@H]1O[C@H](CO)[C@@H](O)[C@H](O)[C@H]1O", "note": "[Octyl glucoside, octyl glucoside]", "values": [{"measurement": "2-MIC-", "setting": "[2]; [8]", "result": 1001, "unit": "ppm"}]}, {"compound": "[O-][n+]1ccccc1S", "note": "[Pyrithione, pyrithione]", "values": [{"measurement": "MIC", "setting": "[1]; read-out: 2-MIC-", "result": 6.25, "unit": "µg/mL"}, {"measurement": "MIC", "setting": "[2]; MRSA, read-out: 2-MIC-", "result": 0.79, "unit": "µg/mL"}, {"measurement": "MIC", "setting": "[2]; MRSA, read-out: 2-MIC-MRSA", "result": 0.79, "unit": "µg/mL"}]}, {"compound": "CC(=O)c1c(O)c(C)c(O)c2c1OC1=CC(=O)C(C(C)=O)C(=O)C12C", "note": "(stereo not shown) [Usnic Acid, usnic acid]", "values": [{"measurement": "MIC", "setting": "[1]; [5]", "result": 1000, "unit": "µg/mL"}, {"measurement": "MIC", "setting": "[1]; [6]", "result": 1000, "unit": "µg/mL"}, {"measurement": "MIC", "setting": "[2]; MRSA, read-out: 1-MIC-", "result": 6.25, "unit": "µg/mL"}, {"measurement": "MIC", "setting": "[2]; MRSA, read-out: 2-MIC-", "result": 6.25, "unit": "µg/mL"}, {"measurement": "MIC", "setting": "[2]; MRSA, read-out: 2-MIC-MRSA", "result": 6.25, "unit": "µg/mL"}]}]}
